Data taken from patent US5750754A, “Heterocyclic compounds” (Zeneca Limited, priority 1993, dated 1998).
Where a name gives a salt, the structure may show the parent alone. Read-outs that look alike come from different tables or passages of the source.

What was measured:
[1] = target: T1, human, citrated, platelet-rich plasma (Homo sapiens, UniProt P05106+P08514); assay: Test (a): inhibition of ADP stimulated platelet aggregation (Born); format: cell-based; conditions: ADP induced aggregation of human platelet-rich plasma
T1 construct: aggregating human, citrated, platelet-rich plasma; endogenous in cells; host or cells: human platelets in citrated platelet-rich plasma
Method in brief: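 ADP added to human citrated platelet-rich plasma to build aggregation dose-response curves, repeated with increasing test compound (generally 10-^5 M to 10-^10 M). pA2 derived from the 50% response value for ADP with vs. without compound, averaged over several concentrations.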

[2] = target: T2, purified human platelet fibrinogen receptor (GPIIb/IIIa) (Homo sapiens, UniProt P05106+P08514); assay: Test (b): GPIIb/IIIa ELISA, inhibition of biotinylated fibrinogen binding; conditions: purified human platelet GPIIb/IIIa, ELISA
T2 construct: is isolated from human platelet lysates; from tissue
Method in brief: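 GPIIb/IIIa affinity-purified from human platelet lysates was coated on plates, blocked, then incubated 2 h at 30 °C with biotinylated fibrinogen ([…]) plus compound. Bound fibrinogen detected via streptavidin/biotinylated HRP and TMB, OD at 650 nm; pIC50 for 50% binding inhibition.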

[3] = read-out: Test (a): pA2 value indicating potency of platelet aggregation inhibition (converted)
[4] = read-out: Test (b): pIC50 (-log(IC50)), 50% inhibition of biotinylated fibrinogen binding to GPIIb/IIIa (converted)

T1 sequence (P08514 32-887 limits assumed): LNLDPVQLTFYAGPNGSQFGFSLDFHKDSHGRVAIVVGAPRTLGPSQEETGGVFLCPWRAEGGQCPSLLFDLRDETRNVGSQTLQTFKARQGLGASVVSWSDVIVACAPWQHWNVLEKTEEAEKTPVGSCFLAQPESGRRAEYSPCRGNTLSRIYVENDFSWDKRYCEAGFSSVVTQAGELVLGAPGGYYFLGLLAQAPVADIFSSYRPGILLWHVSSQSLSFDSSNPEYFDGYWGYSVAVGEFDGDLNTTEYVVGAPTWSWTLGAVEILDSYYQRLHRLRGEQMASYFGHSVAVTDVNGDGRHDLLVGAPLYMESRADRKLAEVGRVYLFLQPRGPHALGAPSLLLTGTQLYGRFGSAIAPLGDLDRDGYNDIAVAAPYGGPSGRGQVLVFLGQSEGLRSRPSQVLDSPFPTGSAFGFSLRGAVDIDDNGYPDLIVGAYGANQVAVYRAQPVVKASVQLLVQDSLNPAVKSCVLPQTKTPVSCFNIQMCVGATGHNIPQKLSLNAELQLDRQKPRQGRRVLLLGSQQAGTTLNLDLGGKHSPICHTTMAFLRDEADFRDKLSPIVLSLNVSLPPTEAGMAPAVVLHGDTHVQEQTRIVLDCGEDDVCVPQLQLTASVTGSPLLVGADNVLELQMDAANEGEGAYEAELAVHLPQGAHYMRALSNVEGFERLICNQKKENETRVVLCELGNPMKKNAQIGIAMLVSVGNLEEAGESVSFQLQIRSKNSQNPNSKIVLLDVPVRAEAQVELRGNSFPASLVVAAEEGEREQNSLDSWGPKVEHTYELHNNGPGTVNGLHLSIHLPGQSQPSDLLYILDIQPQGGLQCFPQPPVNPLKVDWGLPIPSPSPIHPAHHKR
T1 sequence (P08514 891-1039 limits assumed): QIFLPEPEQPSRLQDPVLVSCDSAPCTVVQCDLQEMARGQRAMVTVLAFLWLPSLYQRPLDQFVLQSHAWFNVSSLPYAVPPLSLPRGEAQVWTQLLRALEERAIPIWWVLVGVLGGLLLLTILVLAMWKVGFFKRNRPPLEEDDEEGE
T1 sequence (P05106 27-788): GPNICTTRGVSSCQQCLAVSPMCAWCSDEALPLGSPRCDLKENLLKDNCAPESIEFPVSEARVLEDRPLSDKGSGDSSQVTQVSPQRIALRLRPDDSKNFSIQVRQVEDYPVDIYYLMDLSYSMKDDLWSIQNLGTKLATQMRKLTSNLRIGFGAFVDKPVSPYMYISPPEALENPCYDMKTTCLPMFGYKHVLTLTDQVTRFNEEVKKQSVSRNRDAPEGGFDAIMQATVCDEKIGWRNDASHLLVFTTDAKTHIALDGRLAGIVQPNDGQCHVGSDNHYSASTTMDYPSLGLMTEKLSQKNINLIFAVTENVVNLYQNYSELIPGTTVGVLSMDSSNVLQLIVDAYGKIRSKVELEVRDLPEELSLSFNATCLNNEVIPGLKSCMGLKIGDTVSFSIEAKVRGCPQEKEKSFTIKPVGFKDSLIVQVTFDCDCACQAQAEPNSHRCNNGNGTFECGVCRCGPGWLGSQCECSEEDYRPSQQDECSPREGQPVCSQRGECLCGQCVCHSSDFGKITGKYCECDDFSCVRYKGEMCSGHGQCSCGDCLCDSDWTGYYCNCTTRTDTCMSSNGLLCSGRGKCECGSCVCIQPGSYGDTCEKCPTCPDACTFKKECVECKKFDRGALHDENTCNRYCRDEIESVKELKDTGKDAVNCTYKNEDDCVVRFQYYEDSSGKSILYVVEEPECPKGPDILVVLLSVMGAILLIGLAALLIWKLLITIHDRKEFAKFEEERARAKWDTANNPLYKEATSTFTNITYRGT
T2 sequence (P08514 32-887 limits assumed): as the sequence (P08514 32-887 limits assumed) above
T2 sequence (P08514 891-1039 limits assumed): as the sequence (P08514 891-1039 limits assumed) above
T2 sequence (P05106 27-788): as the sequence (P05106 27-788) above

SMILES | Kb [1, 3] [nM] | IC50 [2, 4] [nM] | other results
COC(=O)CNC(=O)COc1ccc(C(=O)CN2CCN(c3ccncc3)CC2)cc1 [Example 146, Methyl N-[4-[2-[4-(4-pyridyl)piperazin-1-yl]acetyl]phenoxyacetyl]glycinate] | 7940 | 6310 | 
COC(=O)COc1ccc(CCN2CCN(c3ccncc3)CC2)cc1 [Example 147, Methyl 4-[2-[4-(4-pyridyl)piperazin-1-yl]ethyl]phenoxyacetate] | 398 | 631 | 
O=C(O)COc1ccc(CCN2CCN(c3ccncc3)CC2)cc1 [Example 148, 4-[2-[4-(4-Pyridyl)piperazin-1-yl]ethyl]phenoxyacetate acid dihydrochloride] |  |  | Test (a): pA2 value indicating potency of platelet aggregation inhibition [1]: 7.3; Test (b): pIC50 (-log(IC50)), 50% inhibition of biotinylated fibrinogen binding to GPIIb/IIIa [2]: 7.5
CC(C)(C)OC(=O)COc1ccc(CC(=O)N2CCN(c3ccncc3)CC2)cc1 [Example 149, Tertiary butyl 4-[2-[4-(4-pyridyl)piperazin-1-yl]carbonylmethyl]-phenoxyacetate] | 20000 | 20000 | 
O=C(O)COc1ccc(CC(=O)N2CCN(c3ccncc3)CC2)cc1 [Example 150, 4-[2-[4-(4-Pyridyl)piperazin-1-yl]carbonylmethyl]phenoxyacetic acid, dihydrochloride] | 316 | 316 | 
COC(=O)COc1ccc(C(=O)CN2CCN(c3ccnc(C)c3)CC2)cc1 [Example 151, Methyl 4-[2-[4-(2-methylpyrid-4-yl)piperazin-1-yl]acetyl]phenoxyacetate] | 631 | 3980 | 
Cc1cc(N2CCN(CC(=O)c3ccc(OCC(=O)O)cc3)CC2)ccn1 [Example 152, 4-[2-[4-(2-Methylpyrid-4-yl)piperazin-1-yl]acetyl]phenoxyacetic acid, dihydrobromide] | 100 | 100 | 
COC(=O)COc1ccc(C(=O)CN2CCN(c3cc(C)nc(C)c3)CC2)cc1 [Example 153, Methyl [2-[4-(2,6-dimethylpyrid-4-yl)piperazin-1-yl]acetyl]phenoxyacetate, hydrobromide] | 15800 | 50100 | 
Cc1cc(N2CCN(CC(=O)c3ccc(OCC(=O)O)cc3)CC2)cc(C)n1 [Example 154, 4-[2-[4-(2,6-Dimethylpyrid-4-yl)piperazin-1-yl]actyl]phenoxyacetic acid, dihydrobromide] | 10000 | 2510 | 
COC(=O)COc1ccc(OC2CCN(c3ccncc3)CC2)cc1 [Example 155, Methyl 4-[1-(4-pyridyl)piperidin-4-yl]oxyphenoxyacetate] | 3160 | > 100000 | 
O=C(O)COc1ccc(OC2CCN(c3ccncc3)CC2)cc1 [Example 156, 4-[1-(4-Pyridyl)piperidin-4-yl]oxyphenoxyacetic acid] | 20000 | 1580 | 
COC(=O)COc1ccc(OCC2CCN(c3ccncc3)CC2)cc1 [Example 157, Methyl 4-[1-(4-pyridyl)piperidin-4-yl]methoxyphenoxyacetate] | 316 | 79.4 | 
O=C(O)COc1ccc(OCC2CCN(c3ccncc3)CC2)cc1 [Example 158, 4-[1-(4-Pyridyl)piperidin-4-yl]methoxyphenoxyacetic acid.] | 631 | 100 | 
COC(=O)COc1ccc(OCCC2CCN(c3ccncc3)CC2)cc1 [Example 159, Methyl 4-[2-[1-(4-pyridyl)piperidin-4-yl]ethoxy]phenoxyacetate] | 501 | 2000 | 
O=C(O)COc1ccc(OCCC2CCN(c3ccncc3)CC2)cc1 [Example 160, 4-[2-[1-(4-Pyridyl)piperidin-4-yl]ethoxy]phenoxyacetic acid] | 794 | 15.8 | 
COC(=O)CCc1ccc(OCC2CCN(c3ccncc3)CC2)cc1 [Example 161, Methyl 3-[4-[1-(4-pyridyl)piperidin-4-yl]methoxyphenyl]propionate] | 12600 | 50100 | 
O=C(O)CCc1ccc(OCC2CCN(c3ccncc3)CC2)cc1 [Example 162, 3-[4-[1-(4-Pyridyl)piperidin-4-yl]methoxyphenyl]propionic acid] | 20000 | 631 | 
COC(=O)COc1ccc(NC(=O)C2CCN(c3ccncc3)CC2)cc1 [Example 163, Methyl 4-[[1-(4-pyridyl)piperidin-4-yl]carboxamido]phenoxyacetate, hydrochloride] | 398 | 251 | 
O=C(O)COc1ccc(NC(=O)C2CCN(c3ccncc3)CC2)cc1 [Example 164] | 7.94 | 39.8 to 63.1 | 
COC(=O)COc1ccc(NC(=O)CC2CCN(c3ccncc3)CC2)cc1 [Example 165] | 1260 | 20000 | 

SMILES | Kb [1, 3] [nM] | IC50 [2, 4] [nM] | other results
O=C(O)COc1ccc(NC(=O)CC2CCN(c3ccncc3)CC2)cc1 [Example 166, 4-[2-[1-(4-Pyridyl)piperidin-4-yl]acetamido]phenoxyacetic acid dihydrochloride] | 1580 | 316 | 
O=C(O)COc1ccc(C(=O)NC2CCN(c3ccncc3)CC2)cc1 [Example 167, 4-[[1-(4-Pyridyl)piperidin-4-yl]aminocarbonyl]phenoxyacetic acid dihydrochloride] | 251 | 200 | 
O=C(O)COc1ccc(C(=O)NCC2CCN(c3ccncc3)CC2)cc1 [Example 168] | 794 | 398 | 
O=C(O)Cc1ccc(NC(=O)C2CCN(c3ccncc3)CC2)cc1 [Example 169] | 39800 | 10000 | 
CCCCS(=O)(=O)NCc1ccc(NC(=O)C2CCN(c3ccncc3)CC2)cc1 [Example 170, N-[4-[4-[1-(4-Pyridyl)piperidin-4-yl]carboxamidophenyl]-methyl]-1-butanesulphonamide] | 15800 | > 100000 | 
Cc1ccc(S(=O)(=O)NCc2ccc(NC(=O)C3CCN(c4ccncc4)CC3)cc2)cc1 [Example 171, N-[4[4-[1-(4-Pyridyl)piperidin-4yl]carboxyamidophenyl]methyl]-4-methylphenylsulphonamide] | 6310 | > 100000 | 
COC(=O)CNc1ccc(OC(=O)CC2CCN(c3ccncc3)CC2)cc1 [Example 172, 4-Methyloxycarbonylmethylamiophenyl [1-(4-pyridyl)piperidin4-yl]acetate] | 6310 | 50100 | 
COC(=O)COc1ccc(C(=O)CC2CCN(c3ccncc3)CC2)cc1 [Example 173, Methyl 4-[2-[1-(4-pyridyl)piperidin-4-yl]acetyl]phenoxyacetate] | 1260 | 200 | 
O=C(O)COc1ccc(C(=O)CC2CCN(c3ccncc3)CC2)cc1 [Example 174, 4-[2-[1-(4Pyridyl)piperidin-4-yl]acetyl]phenoxyacetic acid hydrochloride] | 158 to 398 | 5.01 to 10 | 
COC(=O)COc1ccc(C(=O)C(C)(C)N2CCN(c3ccncc3)CC2)cc1 [Example 175, Methyl 4-[2-[4-(4-pyridyl)piperazin-1yl]-2,2-dimethylacetyl]-phenoxyacetate] | 1260 | 631 | 
CC(C)(C(=O)c1ccc(OCC(=O)O)cc1)N1CCN(c2ccncc2)CC1 [Example 176, 4-[2-[4-(4-Pyridyl)piperazin-1-yl]-2,2-dimethylacetyl]phenoxyacetic acid] | 200 | 10 | 
COC(=O)CCCc1ccc(CN2CCN(c3ccncc3)CC2)cc1 [Example 178, Methyl 4-[4-[4-(4-pyridyl)piperazin-1-yl]methylphenyl]butyrate] | 3160 | 1000 | 
COC(=O)CCCCc1ccc(CN2CCN(c3ccncc3)CC2)cc1 [Example 179, Methyl 5-[4-[4-(4-pyridyl)piperazin-1-yl]methylphenyl]pentanoate] | 15800 | 3980 | 
CS(=O)(=O)NCc1ccc(NC(=O)C2CCN(c3ccncc3)CC2)cc1 [Example 182] | 7940 | 20000 | 
CS(=O)(=O)NCCc1ccc(NC(=O)C2CCN(c3ccncc3)CC2)cc1 [Example 183, N-[2-[4-[1-(4-Pyridyl)piperidin-4-yl]carboxamidophenyl]ethyl]methanesulphonamide] | 31600 | > 100000 | 
Cc1ccc(S(=O)(=O)NCCc2ccc(NC(=O)C3CCN(c4ccncc4)CC3)cc2)cc1 [Example 184, N-[2-[4-[1-(4-Pyridyl)piperidin-4-yl]carboxamidophenyl]ethyl]-4-methylphenylsulphonamide] | 5010 | > 100000 | 
CCCCS(=O)(=O)NCc1ccc(CCN2CCN(c3ccncc3)CC2)cc1 [Example 185, N-[4-[2-[4-(4-Pyridyl)piperazin-1-yl]ethyl]phenyl]methyl-1-butanesulphonamide] | 3980 | 15800 | 
Cc1ccc(S(=O)(=O)NCc2ccc(CCN3CCN(c4ccncc4)CC3)cc2)cc1 [Example 186] | 5010 | 1260 | 
CN(CC(=O)O)C(=O)c1ccc(N2CCN(c3ccncc3)CC2)cc1 [Example 189, N-[4-[(4,4Pyridyl)piperazin-1-yl]benzoyl]-N-methylglycine, trifluoroacetate] |  |  | Kb ([1]; Test (a): pA2 value indicating potency of platelet aggregation inhibition): 1260 nM; IC50 ([2]; Test (b): pIC50 (-log(IC50)), 50% inhibition of biotinylated fibrinogen binding to GPIIb/IIIa): 316 nM
